Experimental findings from article PMC11435890, “Enzymatic Hydrolysis of Resorcylic Acid Lactones by an Aeromicrobium sp” (Toxins, 2024) are described below.

In test [1] the target is T1, ScHsp82 (ScHSP82) (Saccharomyces cerevisiae, UniProt P02829).
T1 construct: gene HSP82; Ni-NTA and gel permeation
Kind of test: malachite green ATPase inhibition assay. The conditions noted are these: 1 mM ATP, 4% DMSO, 100 mM Tris-HCl pH 7.5, 20 mM KCl, 6 mM MgCl2, 37 °C, 3 h. It is filed as biochemical.

For test [2], the system named is T2, RALH (resorcylic acid lactone hydrolase).
T2 construct: recombinant, codon-optimized, E. coli BL21(DE3); N-terminal His6-MBP tag removed with TEV protease; homologue alignment 303/316 residues (RALH vs ZenH); catalytic triad Ser117, Asp142, His292
Kind of test: LC-HRMS quantification of hydrolyzed product (HZEN), Michaelis-Menten fit. It counts as biochemical, Aeromicrobium sp. LRDC-1. The settings on record: 50 mM Tris-HCl pH 8.0, 1% BSA, 37 °C, 25 nM RALH, 20 min.

Test [3] has the same test system. Kind of test: LC-HRMS quantification of hydrolyzed product (HRAD), Michaelis-Menten fit. It counts as biochemical, Aeromicrobium sp. LRDC-1. The settings on record: 50 mM Tris-HCl pH 8.0, 1% BSA, 37 °C, 25 nM RALH, 5 min.

T1 sequence (P02829 whole entry): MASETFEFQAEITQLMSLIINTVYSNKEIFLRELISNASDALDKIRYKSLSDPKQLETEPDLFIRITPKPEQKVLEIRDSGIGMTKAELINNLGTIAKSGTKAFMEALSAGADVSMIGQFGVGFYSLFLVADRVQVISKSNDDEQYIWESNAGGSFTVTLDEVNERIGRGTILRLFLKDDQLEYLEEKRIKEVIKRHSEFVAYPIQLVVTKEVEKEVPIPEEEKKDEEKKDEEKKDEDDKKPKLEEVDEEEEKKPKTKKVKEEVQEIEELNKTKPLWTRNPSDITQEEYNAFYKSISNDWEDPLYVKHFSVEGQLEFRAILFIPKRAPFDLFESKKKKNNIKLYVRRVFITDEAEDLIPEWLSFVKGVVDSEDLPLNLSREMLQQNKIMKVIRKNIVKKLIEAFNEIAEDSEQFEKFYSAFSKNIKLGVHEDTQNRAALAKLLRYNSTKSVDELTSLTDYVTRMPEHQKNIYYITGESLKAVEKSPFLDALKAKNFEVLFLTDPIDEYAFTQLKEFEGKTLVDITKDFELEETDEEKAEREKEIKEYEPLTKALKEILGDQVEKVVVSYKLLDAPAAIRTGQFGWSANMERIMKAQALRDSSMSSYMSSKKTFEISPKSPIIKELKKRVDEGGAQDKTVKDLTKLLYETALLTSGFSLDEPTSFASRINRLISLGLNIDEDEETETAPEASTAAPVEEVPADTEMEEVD

On to `C[C@H]1CCCC(=O)CCC/C=C/c2cc(O)cc(O)c2C(=O)O1` [I, ZEN], for which the “% decrease in ATPase activity at 50 μM” value in test [1] amounted to 53%. The Km in test [2] was 24 µM.
On to `C[C@@H]1C[C@H]2O[C@@H]2/C=C\C=C\C(=O)Cc2c(Cl)c(O)cc(O)c2C(=O)O1` [III, RAD], for which the Km in test [3] stood at 1200 µM.
